{"source": "paper PMC3411725", "about": "(PLoS ONE, 2012)", "molecules": {"B1": {"name": "AroAE.coli (Escherichia coli K-12) (protein)", "chain": "MESLTLQPIARVDGTINLPGSKSVSNRALLLAALAHGKTVLTNLLDSDDVRHMLNALTALGVSYTLSADRTRCEIIGNGGPLHAEGALELFLGNAGTAMRPLAAALCLGSNDIVLTGEPRMKERPIGHLVDALRLGGAKITYLEQENYPPLRLQGGFTGGNVDVDGSVSSQFLTALLMTAPLAPEDTVIRIKGDLVSKPYIDITLNLMKTFGVEIENQHYQQFVVKGGQSYQSPGTYLVEGDASSASYFLAAAAIKGGTVKVTGIGRNSMQGDIRFADVLEKMGATICWGDDYISCTRGELNAIDMDMNHIPDAAMTIATAALFAKGTTTLRNIYNWRVKETDRLFAMATELRKVGAEVEEGHDYIRITPPEKLNFAEIATYNDHRMAMCFSLVALSDTPVTILDPKCTAKTFPDYFEQLARISQAA", "notes": "overexpressed and purified as P1 (pET-28a, His-tag, E. coli BL21(DE3), HisTrap)"}}, "key": {"AroAE.coli [1]": {"biological_target": "T1, AroAE.coli (Escherichia coli, UniProt P0A6D3, G96A)", "T1 construct": "gene aroA", "assay": "biochemical"}, "AroAE.coli [2]": {"biological_target": "T1, AroAE.coli", "assay": "biochemical", "remark": "listed apart in the source"}, "AroAE.coli [3]": {"biological_target": "T2, AroAE.coli (Escherichia coli, UniProt P0A6D3)", "T2 construct": "gene aroA; overexpressed and purified as P1 (pET-28a, His-tag, E. coli BL21(DE3), HisTrap)", "T2 sequence (P0A6D3 1-427)": "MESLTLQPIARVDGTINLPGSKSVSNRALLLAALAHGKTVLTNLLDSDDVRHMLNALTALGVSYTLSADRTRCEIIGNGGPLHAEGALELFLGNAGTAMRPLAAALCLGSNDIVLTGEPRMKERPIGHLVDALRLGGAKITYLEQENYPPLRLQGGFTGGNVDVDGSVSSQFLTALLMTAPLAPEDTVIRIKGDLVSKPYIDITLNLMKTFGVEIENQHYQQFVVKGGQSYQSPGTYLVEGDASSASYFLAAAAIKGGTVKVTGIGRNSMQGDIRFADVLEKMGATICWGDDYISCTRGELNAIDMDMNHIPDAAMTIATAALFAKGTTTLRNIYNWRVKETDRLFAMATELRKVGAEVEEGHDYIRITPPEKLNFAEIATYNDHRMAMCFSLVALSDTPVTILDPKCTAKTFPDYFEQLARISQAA", "assay": "malachite green phosphate release assay, Lineweaver-Burk", "type": "biochemical", "details": "read-out: K i [glyphosate] ^d"}, "AroAE.coli [4]": {"biological_target": "T2, AroAE.coli", "assay": "malachite green phosphate release assay, dose-response fit", "type": "biochemical", "details": "read-out: IC50 [glyphosate] ^e"}, "[5]": {"substrate": "C=C(OP(=O)(O)O)C(=O)O", "assay": "malachite green phosphate release assay, Lineweaver-Burk", "type": "biochemical, Escherichia coli", "details": "1 mM S3P, 50 mM HEPES pH 7.0, 28°C"}}}
{"molecule": "O=C(O)CNCP(=O)(O)O", "note": "[glyphosate]", "values": [{"measurement": "Ki", "setting": "AroAE.coli [1]", "result": "219.3 ± 1.9", "unit": "µM"}, {"measurement": "IC50", "setting": "AroAE.coli [2]", "result": "220 ± 20", "unit": "µM"}, {"measurement": "Ki", "setting": "AroAE.coli [3]", "result": "1.4 ± 0.1", "unit": "µM"}, {"measurement": "IC50", "setting": "AroAE.coli [4]", "result": "50 ± 10", "unit": "µM"}]}
{"molecule": "B1", "values": [{"measurement": "Km", "setting": "[5]", "result": "65.8 ± 5.6", "unit": "µM"}]}
